# Measured values taken from paper PMC11392244, “Characterization of a unique catechol-O-methyltransferase as a molecular drug target in parasitic filarial nematodes” (PLOS Neglected Tropical Diseases, 2024).
# “And” between values parts separate entries of the source, which are not always exact repeats. Identical values can stand only once. Like-named read-outs stand apart in the source and are kept apart here.
# Experiments:
# DiMT protein = format: biochemical, Dirofilaria immitis; settings: for IC50: read-out: IC 50 (μM ± SEM)
# D. immitis microfilariae = experiment: In vitro efficacy against live D. immitis microfilariae (motility, completely immotile %); format: cell-based, Dirofilaria immitis; settings: for Completely Immotile Microfilariae (%): single replicate; for effect on microfilariae: up to 120 h of culture
smiles,measurement,setting,value
O=c1c(O)cccc2cc(O)c(O)c(O)c12 [NSC35676],Mean Percent Inhibition (single experiments),DiMT protein; 15 µM,41.9 and 44.3 and 44.1
same,"Mean Percent Inhibition, Average",DiMT protein; 15 µM,43.4
same,Mean Percent Inhibition (single experiments),DiMT protein; 25 µM,45.9 and 51.6 and 47.0
same,"Mean Percent Inhibition, Average",DiMT protein; 25 µM,48.2
same,Mean Percent Inhibition (single experiments),DiMT protein; 50 µM,62.0 and 58.4 and 60.6
same,"Mean Percent Inhibition, Average",DiMT protein; 50 µM,60.4
same,Mean Percent Inhibition (single experiments),DiMT protein; 75 µM,63.8 and 67.9 and 65.4
same,"Mean Percent Inhibition, Average",DiMT protein; 75 µM,65.7
same,Mean Percent Inhibition (single experiments),DiMT protein; 100 µM,68.1 and 72.1 and 71.2
same,"Mean Percent Inhibition, Average",DiMT protein; 100 µM,70.5
same,IC50,DiMT protein,25.2 ± 1.4 µM
same,Mean completely Immotile (%),"D. immitis microfilariae; 25 µM, 0 h",0%
same,Completely Immotile Microfilariae (%),"D. immitis microfilariae; 25 µM, 0 h",0%
same,Mean completely Immotile (%),"D. immitis microfilariae; 25 µM, 24 h",1%
same,Completely Immotile Microfilariae (%),"D. immitis microfilariae; 25 µM, 24 h",0% and 1% and 2%
same,Mean completely Immotile (%),"D. immitis microfilariae; 25 µM, 48 h",3%
same,Completely Immotile Microfilariae (%),"D. immitis microfilariae; 25 µM, 48 h",2% and 3% and 4%
same,Mean completely Immotile (%),"D. immitis microfilariae; 25 µM, 72 h",4.33%
same,Completely Immotile Microfilariae (%),"D. immitis microfilariae; 25 µM, 72 h",4% and 3% and 6%
same,Mean completely Immotile (%),"D. immitis microfilariae; 25 µM, 96 h",5.67%
same,Completely Immotile Microfilariae (%),"D. immitis microfilariae; 25 µM, 96 h",5% and 4% and 8%
same,Mean completely Immotile (%),"D. immitis microfilariae; 25 µM, 120 h",9.33%
same,Completely Immotile Microfilariae (%),"D. immitis microfilariae; 25 µM, 120 h",7% and 6% and 15%
same,Mean completely Immotile (%),"D. immitis microfilariae; 75 µM, 0 h",0%
same,Completely Immotile Microfilariae (%),"D. immitis microfilariae; 75 µM, 0 h",0%
same,Mean completely Immotile (%),"D. immitis microfilariae; 75 µM, 24 h",2.33%
same,Completely Immotile Microfilariae (%),"D. immitis microfilariae; 75 µM, 24 h",1% (2×) and 5%
same,Mean completely Immotile (%),"D. immitis microfilariae; 75 µM, 48 h",4.33%
same,Completely Immotile Microfilariae (%),"D. immitis microfilariae; 75 µM, 48 h",4% and 3% and 6%
same,Mean completely Immotile (%),"D. immitis microfilariae; 75 µM, 72 h",9%
same,Completely Immotile Microfilariae (%),"D. immitis microfilariae; 75 µM, 72 h",10% and 8% and 9%
same,Mean completely Immotile (%),"D. immitis microfilariae; 75 µM, 96 h",12%
same,Completely Immotile Microfilariae (%),"D. immitis microfilariae; 75 µM, 96 h",12% and 11% and 13%
same,Mean completely Immotile (%),"D. immitis microfilariae; 75 µM, 120 h",15.67%
same,Completely Immotile Microfilariae (%),"D. immitis microfilariae; 75 µM, 120 h",15% and 13% and 19%
same,Mean completely Immotile (%),"D. immitis microfilariae; 125 µM, 0 h",0%
same,Completely Immotile Microfilariae (%),"D. immitis microfilariae; 125 µM, 0 h",0%
same,Mean completely Immotile (%),"D. immitis microfilariae; 125 µM, 24 h",4.33%
same,Completely Immotile Microfilariae (%),"D. immitis microfilariae; 125 µM, 24 h",3% and 4% and 6%
same,Mean completely Immotile (%),"D. immitis microfilariae; 125 µM, 48 h",6%
same,Completely Immotile Microfilariae (%),"D. immitis microfilariae; 125 µM, 48 h",5% and 4% and 9%
same,Mean completely Immotile (%),"D. immitis microfilariae; 125 µM, 72 h",12.33%
same,Completely Immotile Microfilariae (%),"D. immitis microfilariae; 125 µM, 72 h",12% and 10% and 15%
same,Mean completely Immotile (%),"D. immitis microfilariae; 125 µM, 96 h",20.33%
same,Completely Immotile Microfilariae (%),"D. immitis microfilariae; 125 µM, 96 h",16% and 15% and 30%
same,Mean completely Immotile (%),"D. immitis microfilariae; 125 µM, 120 h",18.67%
same,Completely Immotile Microfilariae (%),"D. immitis microfilariae; 125 µM, 120 h",19% and 15% and 22%
same,Mean completely Immotile (%),"D. immitis microfilariae; 200 µM, 0 h",0%
same,Completely Immotile Microfilariae (%),"D. immitis microfilariae; 200 µM, 0 h",0%
same,Mean completely Immotile (%),"D. immitis microfilariae; 200 µM, 24 h",5%
same,Completely Immotile Microfilariae (%),"D. immitis microfilariae; 200 µM, 24 h",5% and 4% and 6%
same,Mean completely Immotile (%),"D. immitis microfilariae; 200 µM, 48 h",7.33%
same,Completely Immotile Microfilariae (%),"D. immitis microfilariae; 200 µM, 48 h",5% and 6% and 11%
same,Mean completely Immotile (%),"D. immitis microfilariae; 200 µM, 72 h",13.33%
same,Completely Immotile Microfilariae (%),"D. immitis microfilariae; 200 µM, 72 h",15% and 13% and 12%
same,Mean completely Immotile (%),"D. immitis microfilariae; 200 µM, 96 h",18.67%
same,Completely Immotile Microfilariae (%),"D. immitis microfilariae; 200 µM, 96 h",20% and 19% and 17%
same,Mean completely Immotile (%),"D. immitis microfilariae; 200 µM, 120 h",23%
same,Completely Immotile Microfilariae (%),"D. immitis microfilariae; 200 µM, 120 h",23% and 22% and 24%
same,effect on microfilariae,D. immitis microfilariae,insignificant effect
COc1ccc(-c2c(C)c(C(=O)O)nc(-c3ccc4c(O)c(OC)c5c(c4n3)=NC(C)(C)N=5)c2N)c(O)c1OC [NSC62709],Mean Percent Inhibition,DiMT protein; 40 µM,32.1% and 22.9% and 27.7%
same,"Mean Percent Inhibition, Average",DiMT protein; 40 µM,27.6%
same,Mean Percent Inhibition,DiMT protein; 80 µM,63.8% and 49.7% and 46.2%
same,"Mean Percent Inhibition, Average",DiMT protein; 80 µM,53.2%
same,Mean Percent Inhibition,DiMT protein; 120 µM,65.7% and 71.6% and 62.3%
same,"Mean Percent Inhibition, Average",DiMT protein; 120 µM,66.5%
same,Mean Percent Inhibition,DiMT protein; 140 µM,72.8% and 64.4% and 72.4%
same,"Mean Percent Inhibition, Average",DiMT protein; 140 µM,69.9%
same,Mean Percent Inhibition,DiMT protein; 180 µM,81.5% and 69.4% and 74.5%
same,"Mean Percent Inhibition, Average",DiMT protein; 180 µM,75.1%
same,IC50,DiMT protein,76.2 ± 1.7 µM
same,Mean completely Immotile (%),"D. immitis microfilariae; 50 µM, 0 h",0%
same,Completely Immotile Microfilariae (%),"D. immitis microfilariae; 50 µM, 0 h",0%
same,Mean completely Immotile (%),"D. immitis microfilariae; 50 µM, 24 h",1.67%
same,Completely Immotile Microfilariae (%),"D. immitis microfilariae; 50 µM, 24 h",1% and 2% (2×)
same,Mean completely Immotile (%),"D. immitis microfilariae; 50 µM, 48 h",3.33%
same,Completely Immotile Microfilariae (%),"D. immitis microfilariae; 50 µM, 48 h",3% (2×) and 4%
same,Mean completely Immotile (%),"D. immitis microfilariae; 50 µM, 72 h",5.67%
same,Completely Immotile Microfilariae (%),"D. immitis microfilariae; 50 µM, 72 h",5% (2×) and 7%
same,Mean completely Immotile (%),"D. immitis microfilariae; 50 µM, 96 h",7.33%
same,Completely Immotile Microfilariae (%),"D. immitis microfilariae; 50 µM, 96 h",7% and 9% and 6%
same,Mean completely Immotile (%),"D. immitis microfilariae; 50 µM, 120 h",14%
same,Completely Immotile Microfilariae (%),"D. immitis microfilariae; 50 µM, 120 h",12% and 14% and 16%
same,Mean completely Immotile (%),"D. immitis microfilariae; 100 µM, 0 h",0%
same,Completely Immotile Microfilariae (%),"D. immitis microfilariae; 100 µM, 0 h",0%
same,Mean completely Immotile (%),"D. immitis microfilariae; 100 µM, 24 h",3.67%
same,Completely Immotile Microfilariae (%),"D. immitis microfilariae; 100 µM, 24 h",3% (2×) and 5%
same,Mean completely Immotile (%),"D. immitis microfilariae; 100 µM, 48 h",7%
same,Completely Immotile Microfilariae (%),"D. immitis microfilariae; 100 µM, 48 h",7% and 6% and 8%
same,Mean completely Immotile (%),"D. immitis microfilariae; 100 µM, 72 h",9.33%
same,Completely Immotile Microfilariae (%),"D. immitis microfilariae; 100 µM, 72 h",9% (2×) and 10%
same,Mean completely Immotile (%),"D. immitis microfilariae; 100 µM, 96 h",12.33%
same,Completely Immotile Microfilariae (%),"D. immitis microfilariae; 100 µM, 96 h",10% and 12% and 15%
same,Mean completely Immotile (%),"D. immitis microfilariae; 100 µM, 120 h",17%
same,Completely Immotile Microfilariae (%),"D. immitis microfilariae; 100 µM, 120 h",15% and 17% and 19%
same,Mean completely Immotile (%),"D. immitis microfilariae; 150 µM, 0 h",0%
same,Completely Immotile Microfilariae (%),"D. immitis microfilariae; 150 µM, 0 h",0%
same,Mean completely Immotile (%),"D. immitis microfilariae; 150 µM, 24 h",4.67%
same,Completely Immotile Microfilariae (%),"D. immitis microfilariae; 150 µM, 24 h",5% (2×) and 4%
same,Mean completely Immotile (%),"D. immitis microfilariae; 150 µM, 48 h",8.67%
same,Completely Immotile Microfilariae (%),"D. immitis microfilariae; 150 µM, 48 h",9% and 6% and 11%
same,Mean completely Immotile (%),"D. immitis microfilariae; 150 µM, 72 h",12.33%
same,Completely Immotile Microfilariae (%),"D. immitis microfilariae; 150 µM, 72 h",12% and 11% and 14%
same,Mean completely Immotile (%),"D. immitis microfilariae; 150 µM, 96 h",14.67%
same,Completely Immotile Microfilariae (%),"D. immitis microfilariae; 150 µM, 96 h",13% and 14% and 17%
same,Mean completely Immotile (%),"D. immitis microfilariae; 150 µM, 120 h",21.33%
same,Completely Immotile Microfilariae (%),"D. immitis microfilariae; 150 µM, 120 h",20% and 21% and 23%
same,Mean completely Immotile (%),"D. immitis microfilariae; 200 µM, 0 h",0%
same,Completely Immotile Microfilariae (%),"D. immitis microfilariae; 200 µM, 0 h",0%
same,Mean completely Immotile (%),"D. immitis microfilariae; 200 µM, 24 h",6.67%
same,Completely Immotile Microfilariae (%),"D. immitis microfilariae; 200 µM, 24 h",7% (2×) and 6%
same,Mean completely Immotile (%),"D. immitis microfilariae; 200 µM, 48 h",10.67%
same,Completely Immotile Microfilariae (%),"D. immitis microfilariae; 200 µM, 48 h",12% and 9% and 11%
same,Mean completely Immotile (%),"D. immitis microfilariae; 200 µM, 72 h",14.33%
same,Completely Immotile Microfilariae (%),"D. immitis microfilariae; 200 µM, 72 h",16% (2×) and 11%
same,Mean completely Immotile (%),"D. immitis microfilariae; 200 µM, 96 h",18.67%
same,Completely Immotile Microfilariae (%),"D. immitis microfilariae; 200 µM, 96 h",19% and 17% and 20%
same,Mean completely Immotile (%),"D. immitis microfilariae; 200 µM, 120 h",25.33%
same,Completely Immotile Microfilariae (%),"D. immitis microfilariae; 200 µM, 120 h",24% and 26% (2×)
same,effect on microfilariae,D. immitis microfilariae,insignificant effect
COc1cc(C)c2c(c1C=O)Oc1c(c(C)c(O)c3c1C(O)OC3=O)OC2=O (centres unmarked) [NSC87511],IC50,DiMT protein,155 ± 2.2 µM
same,effect on microfilariae,D. immitis microfilariae,insignificant effect
CO[C@@H]1[C@@H](OC(=O)c2ccc(C)[nH]2)[C@@H](O)[C@H](Oc2ccc3c(O)c(NC(=O)c4ccc(O)c(CC=C(C)C)c4)c(=O)oc3c2Cl)OC1(C)C [NSC227186],Mean Percent Inhibition,DiMT protein; 10 µM,25.0% and 23.9% and 30.2%
same,"Mean Percent Inhibition, Average",DiMT protein; 10 µM,26.4%
same,Mean Percent Inhibition,DiMT protein; 40 µM,40.1% and 37.1% and 38.3%
same,"Mean Percent Inhibition, Average",DiMT protein; 40 µM,38.5%
same,Mean Percent Inhibition,DiMT protein; 70 µM,40.5% and 43.1% and 39.6%
same,"Mean Percent Inhibition, Average",DiMT protein; 70 µM,41.1%
same,Mean Percent Inhibition,DiMT protein; 100 µM,44.8% and 43.5% and 45.8%
same,"Mean Percent Inhibition, Average",DiMT protein; 100 µM,44.7%
same,Mean Percent Inhibition,DiMT protein; 130 µM,46.6% and 49.3% and 48.1%
same,"Mean Percent Inhibition, Average",DiMT protein; 130 µM,48.0%
same,Mean Percent Inhibition,DiMT protein; 160 µM,50.6% and 48.4% and 57.2%
same,"Mean Percent Inhibition, Average",DiMT protein; 160 µM,52.0%
